Test systems include HOP-62; SK-MEL-2; COLO 205; LOX IMVI; UACC-257; CAKI-1; NCI-H23; NCI-H460; MCF7; SF-295; IGROV-1; TK-10; ACHN; DU-145; M14; OVCAR-8; NCI/ADR-RES; SW-620; HL-60.
Assay in all cases: NCI tumour cell line growth inhibition, 48 h

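Protocol summary: plate cells (96-well), add compound at 5 concentrations, incubate 48 h, interpolate endpoints linearly. Abbreviation: GI50, concentration required for 50% inhibition of growth.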 Active and inactive are the calls of the source. Rule as the data show it: active = GI50 up to about 1.1 µM and inactive = higher. A value given as a limit tells only on which side of the number the result lay.

With `c1cc(NNc2cccc(-c3nnn[nH]3)c2)cc(-c2nnn[nH]2)c1`, the GI50 with HOP-62, in the experiment with SK-MEL-2, with COLO 205, with LOX IMVI, in the experiment on UACC-257 and in the experiment with CAKI-1 was > 100 µM (inactive) each time. Besides, the GI50 in the experiment with NCI-H23, in the experiment on NCI-H460, in the experiment with MCF7, with SF-295, in the experiment on IGROV-1 and in the experiment on TK-10 was > 100 µM (inactive) in each case. The GI50 in the experiment on ACHN, with DU-145, with M14, with OVCAR-8, with NCI/ADR-RES and in the experiment with SW-620 was > 100 µM (inactive) throughout.

Turning to `C=C1C(=O)OC2/C=C(\C)C3OC3/C=C(/C(=O)OC)C(OC(C)=O)C(OC(=O)C(C)(O)C(C)OC(C)=O)C12` (stereo not given), the GI50 is 20.8 µM (inactive) in the experiment with HOP-62; 4.59 µM (inactive) with SK-MEL-2; 1.29 µM (inactive) in the experiment on COLO 205; 1.53 µM (inactive) with LOX IMVI; 0.679 µM (active) in the experiment with UACC-257; 4.36 µM (inactive) in the experiment on CAKI-1. Further, the GI50 was 2.5 µM (inactive) with NCI-H23; 3.45 µM (inactive) with NCI-H460; 0.736 µM (active) with MCF7; 9.2 µM (inactive) in the experiment with SF-295; 1.98 µM (inactive) with IGROV-1; 1.83 µM (inactive) in the experiment on TK-10. The GI50 in the experiment on ACHN was 3.78 µM (inactive); in the experiment with HL-60 it was 0.308 µM (active); with DU-145, > 10 µM (inactive); with M14, 2.39 µM (inactive); in the experiment on OVCAR-8 it was 1.4 µM (inactive); with SW-620, 0.796 µM (active).

As to `NC(CC(=O)OCc1ccccc1)C(=O)OCc1ccccc1` (stereo not given), the GI50 in the experiment on HOP-62 was > 100 µM (inactive); in the experiment on SK-MEL-2 it was > 100 µM (inactive); in the experiment on COLO 205 it was > 100 µM (inactive); in the experiment with LOX IMVI, > 100 µM (inactive); with UACC-257, > 100 µM (inactive); in the experiment with CAKI-1, 63.1 µM (inactive). In addition, the GI50 with NCI-H23, in the experiment on NCI-H460, in the experiment on MCF7, in the experiment with SF-295, in the experiment on IGROV-1 and with TK-10 was > 100 µM (inactive) throughout. Further, the GI50 in the experiment with ACHN, in the experiment on DU-145, with M14, in the experiment on OVCAR-8, with NCI/ADR-RES and in the experiment on SW-620 was > 100 µM (inactive) in each case.

Take `C=C(CCC/C(C)=C/C=C/[C@H](C)CCCc1ccoc1)C[C@@H]1OC(=O)[C@H](C)[C@@H]1O`: the GI50 was 8.63 µM (inactive) with HOP-62; 9.14 µM (inactive) in the experiment with SK-MEL-2; 12.6 µM (inactive) in the experiment on COLO 205; 13.6 µM (inactive) in the experiment on LOX IMVI; 7.18 µM (inactive) in the experiment with UACC-257; 8.99 µM (inactive) in the experiment with CAKI-1. In addition, the GI50 in the experiment with NCI-H23 is 8.69 µM (inactive); in the experiment with NCI-H460 it was 12.5 µM (inactive); in the experiment on MCF7 it was 10.8 µM (inactive); in the experiment on SF-295, 8.83 µM (inactive); in the experiment on IGROV-1 it was 11.2 µM (inactive); in the experiment on TK-10 it was 10.6 µM (inactive). Further, the GI50 was 9.18 µM (inactive) with ACHN; 8.55 µM (inactive) in the experiment with DU-145; 8.81 µM (inactive) in the experiment with M14; 11.9 µM (inactive) in the experiment on OVCAR-8; 9.71 µM (inactive) in the experiment on NCI/ADR-RES; 12.8 µM (inactive) in the experiment with SW-620.

On to `Cc1nc(C)c(N2CCN(S(=O)(=O)N(Cc3ccccc3)Cc3ccccc3)CC2)c(O)n1`, for which the GI50 with HOP-62 was 9.31 µM (inactive); in the experiment on SK-MEL-2, 26.7 µM (inactive); with COLO 205, > 100 µM (inactive); in the experiment with LOX IMVI it was 43.5 µM (inactive); with UACC-257, > 100 µM (inactive); in the experiment with NCI-H23, 14.3 µM (inactive). Moreover, the GI50 is > 46.9 µM (inactive) in the experiment with NCI-H460; > 43.6 µM (inactive) in the experiment with MCF7; 18.7 µM (inactive) in the experiment on SF-295; 16.8 µM (inactive) in the experiment with IGROV-1; 33.6 µM (inactive) in the experiment with TK-10; 28.6 µM (inactive) with ACHN. Moreover, the GI50 in the experiment with HL-60 was > 100 µM (inactive); in the experiment with DU-145 it was > 59.4 µM (inactive); in the experiment on M14, > 100 µM (inactive); with OVCAR-8, 4.78 µM (inactive); with NCI/ADR-RES it was > 61.4 µM (inactive); with SW-620, > 100 µM (inactive).

For the compound `COC(=O)[C@]12CSC[C@H]1C[C@H](c1ccccc1OC)N2`, the GI50 with HOP-62, in the experiment with SK-MEL-2, in the experiment with COLO 205, with LOX IMVI, in the experiment on UACC-257 and in the experiment with CAKI-1 was > 100 µM (inactive) throughout. For the same compound, the GI50 with NCI-H23 is > 100 µM (inactive); in the experiment on NCI-H460 it was > 100 µM (inactive); with MCF7, > 100 µM (inactive); in the experiment with SF-295, > 100 µM (inactive); with IGROV-1, 85.9 µM (inactive); in the experiment on TK-10 it was > 100 µM (inactive). Besides, the GI50 in the experiment on ACHN, in the experiment with DU-145, with M14, in the experiment on OVCAR-8, in the experiment with NCI/ADR-RES and in the experiment on SW-620 was > 100 µM (inactive) throughout.

Turning to `C1=N\c2ccc(cc2)-c2ccc(cc2)/N=C\c2ccc(cc2)OCc2cccc(n2)COc2ccc/1cc2`, the GI50 in the experiment with HOP-62 is 27.3 µM (inactive); with SK-MEL-2, > 100 µM (inactive); in the experiment on COLO 205, > 100 µM (inactive); in the experiment with UACC-257, > 100 µM (inactive); in the experiment with CAKI-1, > 100 µM (inactive); with NCI-H23, > 100 µM (inactive). The GI50 in the experiment on NCI-H460 was > 100 µM (inactive); in the experiment on MCF7, > 100 µM (inactive); with SF-295 it was 79.4 µM (inactive); with IGROV-1 it was > 100 µM (inactive); in the experiment with ACHN, > 100 µM (inactive); in the experiment with HL-60 it was > 100 µM (inactive). Further, the GI50 is > 100 µM (inactive) with DU-145; > 100 µM (inactive) in the experiment on M14; 25.1 µM (inactive) in the experiment on OVCAR-8; 99.3 µM (inactive) in the experiment on NCI/ADR-RES; > 100 µM (inactive) in the experiment with SW-620.

On to `C=CCN1C[C@@H](C)N([C@@H](c2ccccc2)c2ccc(C(=O)N(CC)CC)cc2)C[C@@H]1C`, for which the GI50 in the experiment with HOP-62, in the experiment on SK-MEL-2, in the experiment on COLO 205, in the experiment on CAKI-1, in the experiment with NCI-H23 and in the experiment on MCF7 was > 100 µM (inactive) in each case. The GI50 with SF-295, with IGROV-1, in the experiment on ACHN, with HL-60, in the experiment with DU-145 and in the experiment with M14 was > 100 µM (inactive) throughout. For the same compound, the GI50 with OVCAR-8, with NCI/ADR-RES and with SW-620 was > 100 µM (inactive) each time.

On to `Cc1cc(N(CCC#N)CCC#N)ccc1C(/N=N/c1ccc([N+](=O)[O-])cc1)=N\NC(=O)c1ccccc1`, for which the GI50 in the experiment with HOP-62 is 87.5 µM (inactive); with SK-MEL-2, 67 µM (inactive); with COLO 205 it was 35.2 µM (inactive); in the experiment with UACC-257, 61.8 µM (inactive); in the experiment on CAKI-1, 72.1 µM (inactive); in the experiment on NCI-H23, 30.7 µM (inactive). The GI50 in the experiment with NCI-H460 was 37.2 µM (inactive); with MCF7, 25.8 µM (inactive); with SF-295, 19.5 µM (inactive); in the experiment with IGROV-1 it was 47 µM (inactive); in the experiment with TK-10, 61.9 µM (inactive); in the experiment with ACHN, 62.8 µM (inactive). The GI50 in the experiment with HL-60 was 32.1 µM (inactive); in the experiment on DU-145, 48 µM (inactive); in the experiment with M14, 86.9 µM (inactive); in the experiment on OVCAR-8, 56.5 µM (inactive); in the experiment with NCI/ADR-RES, 51.5 µM (inactive).

For the compound `CC(=O)c1cc2c(s1)C(=O)c1scc(C(C)=O)c1C2=O`, the GI50 is 0.467 µM (active) with HOP-62; 0.586 µM (active) with SK-MEL-2; 1.97 µM (inactive) with COLO 205; 0.0711 µM (active) in the experiment with LOX IMVI; 0.223 µM (active) with UACC-257; 0.929 µM (active) in the experiment with CAKI-1. In addition, the GI50 with NCI-H23 is 0.432 µM (active); with NCI-H460 it was 0.345 µM (active); with MCF7, 0.163 µM (active); in the experiment on SF-295, 0.883 µM (active); in the experiment on IGROV-1, 0.514 µM (active); in the experiment with TK-10 it was 3.52 µM (inactive). Also, the GI50 was 0.248 µM (active) in the experiment with ACHN; 1.52 µM (inactive) with DU-145; 0.736 µM (active) with M14; 0.23 µM (active) in the experiment with OVCAR-8; 0.24 µM (active) in the experiment on NCI/ADR-RES; 0.394 µM (active) with SW-620.

In the case of `CC(=O)Nc1nnc(S(C)(=O)=O)s1`, the GI50 with HOP-62, with COLO 205, in the experiment with UACC-257, in the experiment with NCI-H23, in the experiment with NCI-H460 and with MCF7 was > 100 µM (inactive) throughout. The GI50 with SF-295, with TK-10, in the experiment on ACHN, with HL-60, in the experiment with DU-145 and in the experiment with M14 was > 100 µM (inactive) throughout. The GI50 in the experiment with OVCAR-8, in the experiment with NCI/ADR-RES and in the experiment with SW-620 was > 100 µM (inactive) each time.

For the origin of these results see ChEMBL document CHEMBL1201862, “PubChem BioAssay data set” (2004).
